Assay results from patent US20040029100A1, “Rapid screen to identify p-glycoprotein substrates and high affinity modulators” (priority 2000, published 2004).
Read-outs that look alike come from different tables or passages of the source. One block for each molecule: values may come before it. Square brackets hold non-standard residues; d marks the D form. Peptide text beside a SMILES is read from it. * marks the point of attachment. Sta = CC(C)C[C@H](N)[C@@H](O)CC(=O)O; Isovaleryl = CC(C)CC(=O)*; Cbz = O=C(OCc1ccccc1)*; Boc = CC(C)(C)OC(=O)*; OBn = c1ccc(CO*)cc1; OtBu = CC(C)(C)O*

Assays:
[1] = target: T1, P-glycoprotein (Pgp) purified from MDR CH^RB30 Chinese hamster ovary cells (Cricetulus griseus, UniProt P21448); test: Quenching of intrinsic Trp fluorescence of purified Pgp by nucleotides, drugs and peptides; conditions: for ΔFmax: maximal quenching reached at saturation
Protocol: (§1) Purification of Pgp. Pgp was purified from plasma membrane of MDR CH^RB30 cells by a modification of the method previously described for CH^RC5 (27). […] Contaminating glycoproteins were removed from the S2 fraction by passing through a concanavalinA-Sepharose 4B column (Pharmacia) equilibrated with 2 mM CHAPS buffer. […] The Pgp preparation was kept on ice and used within 24 h.
(§2) Steady-state Fluorescence Measurements. Steady-state fluorescence measurements were performed using a Spex Model DM3000 spectrofluorimeter (Spex Industries Inc., Edison, N.J.) at 22° C., with excitation and emission bandpass set to 4 nm. Most fluorescence studies were carried out on solutions of 100 μg/mL Pgp in 2 mM CHAPS buffer, in the presence of 0.5 mg/mL of the phospholipid PMPC (Avanti Polar Lipids, Alabaster, Ala.). PMPC was added as extruded 100 nm unilamellar vesicles (8). With some drugs, the use of a lipid was not required for the fluorescence measurements. The excitation and emission spectra were the average of three scans, and were corrected by subtracting control scans with the same phospholipid buffer in the absence of protein.
(§3) Quenching Studies using TNP-Nucleotide Derivatives and Drugs. […] Working solutions of TNP-derivatives, and non-peptide drugs and modulators were also prepared in 2 mM CHAPS with 0.5 mg/mL PMPC vesicles, whereas peptide-based drugs and modulators were dissolved in dimethylsulfoxide (DMSO). […] Quenching experiments were performed by successively adding 5 μL aliquots of TNP-derivatives or drug solution to 500 μL of Pgp solution in a 0.5 cm quartz cuvette. After each addition, the sample was excited at 290 nm and the steady-state fluorescence emission was measured at 330 nm. Fluorescence intensities were corrected for dilution, scattering, and the inner filter effect as described elsewhere (8). Control titrations were performed with 30 μM NATA to assess the non-specific quenching of Trp fluorescence by TNP-nucleotide derivatives and drugs.
(§4) The experimental quenching data were computer-fitted to the following equation as described previously (8)(9): [formula]
(§5) where (ΔF/F0 100) is the percent quenching (percent change in fluorescence relative to the initial value), following addition of substrate at a concentration [S], and Kd is the dissociation constant. Fitting was carried out using nonlinear regression with the Marquardt-Levenberg algorithm (SigmaPlot, SPSS Inc., Chicago, Ill.), and values of Kd and (ΔFmax/F0 100) were extracted. For biphasic titration curves, each section of the binding curve was fitted to the above equation separately, as described previously (32).

Pgp ATPase = Pgp ATPase (Cricetulus griseus, UniProt P21448); test: Pgp ATPase activity; assay type: biochemical; conditions: over the range 0.3-0.5 M
[2] = target: T1, P-glycoprotein (Pgp) purified from MDR CH^RB30 Chinese hamster ovary cells; test: Trp fluorescence lifetime of purified Pgp in presence of nucleotides and drugs; design: Pgp was purified from plasma membrane of MDR CH^RB30 cells; endogenous in cells; host or cells: MDR CH^RB30 Chinese hamster ovary cells (plasma membrane, CHAPS extraction, concanavalin A-Sepharose pass-through); conditions: Pgp Trp decay, concentration of substance
Protocol: as §1
Fluorescence Lifetime Measurements. Fluorescence decays were measured with a PTI Model C-720 fluorescence lifetime instrument ((28), Photon Technology International Inc., Lawrenceville, N.J.) utilizing a proprietary stroboscopic detection technique (29). […] Fluorescence decays were analyzed with a PTI TimeMaster Pro analysis package using a discrete 1- to 4- exponential fit, 1- to 4-exponential global analysis, or lifetime distribution analysis by the Exponential Series Method (ESM) (30). The quality of fits was judged by chi-square values and weighed residuals.

P-glycoprotein (Pgp) = P-glycoprotein (Pgp) (Cricetulus griseus, UniProt P21448); test: in vitro; conditions: Chinese hamster, Kd2
Protocol: as §1, §2, §3, §4, §5

[3] = maximal Trp quenching, single or higher affinity component
[4] = read-out: Kd1, single binding site or high affinity site, 100 μg/mL Pgp, 2 mM CHAPS, 0.5 mg/mL PMPC, 22° C.
[5] = Kd1, single binding site or high affinity site, 100 μg/mL Pgp, 2 mM CHAPS, 0.5 mg/mL PMPC, 22° C.
[6] = maximal Trp quenching, lower affinity component
[7] = read-out: Kd2, lower affinity site of biphasic quench curve

T1 sequence (P21448 whole entry): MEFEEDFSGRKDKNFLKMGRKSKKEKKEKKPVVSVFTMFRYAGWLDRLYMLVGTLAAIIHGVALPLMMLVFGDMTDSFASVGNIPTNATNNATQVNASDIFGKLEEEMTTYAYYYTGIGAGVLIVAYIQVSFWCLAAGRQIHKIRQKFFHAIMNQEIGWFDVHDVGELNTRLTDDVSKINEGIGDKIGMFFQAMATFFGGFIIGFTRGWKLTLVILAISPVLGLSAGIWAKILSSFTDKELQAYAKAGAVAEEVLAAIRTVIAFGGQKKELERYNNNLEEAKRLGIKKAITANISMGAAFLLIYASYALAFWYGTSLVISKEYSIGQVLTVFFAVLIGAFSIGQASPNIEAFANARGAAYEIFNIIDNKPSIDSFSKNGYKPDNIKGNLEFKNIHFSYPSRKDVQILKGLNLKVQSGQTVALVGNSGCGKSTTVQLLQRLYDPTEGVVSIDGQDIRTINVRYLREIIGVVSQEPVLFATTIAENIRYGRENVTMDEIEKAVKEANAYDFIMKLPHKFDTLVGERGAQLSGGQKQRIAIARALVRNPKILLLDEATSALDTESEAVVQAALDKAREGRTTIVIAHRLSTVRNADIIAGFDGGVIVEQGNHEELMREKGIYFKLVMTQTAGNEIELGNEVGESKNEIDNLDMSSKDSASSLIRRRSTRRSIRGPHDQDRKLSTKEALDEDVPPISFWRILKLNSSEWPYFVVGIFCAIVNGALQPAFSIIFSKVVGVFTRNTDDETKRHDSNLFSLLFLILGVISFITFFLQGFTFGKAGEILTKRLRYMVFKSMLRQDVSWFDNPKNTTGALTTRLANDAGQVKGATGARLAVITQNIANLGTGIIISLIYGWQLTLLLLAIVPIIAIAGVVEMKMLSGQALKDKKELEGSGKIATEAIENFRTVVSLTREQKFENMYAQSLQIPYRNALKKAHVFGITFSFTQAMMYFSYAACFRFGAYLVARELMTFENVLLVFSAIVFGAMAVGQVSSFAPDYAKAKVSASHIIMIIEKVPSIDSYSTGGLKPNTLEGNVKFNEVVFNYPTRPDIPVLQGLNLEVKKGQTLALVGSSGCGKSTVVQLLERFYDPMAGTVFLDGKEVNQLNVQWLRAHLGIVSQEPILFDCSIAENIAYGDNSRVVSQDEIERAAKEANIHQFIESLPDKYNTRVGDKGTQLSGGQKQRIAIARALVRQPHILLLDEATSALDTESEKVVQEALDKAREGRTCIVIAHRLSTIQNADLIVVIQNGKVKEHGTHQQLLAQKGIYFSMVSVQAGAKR
Sequence of P-glycoprotein (Pgp) (P21448 whole entry): as above
Sequence of Pgp ATPase (P21448 whole entry): as above

Molecule: Nc1ncnc2c1ncn2[C@@H]1O[C@H](COP(=O)([O-])OP(=O)([O-])O)[C@@H](O)[C@H]1O.[Na+].[Na+] [ADP, disodium-ADP]
ΔFmax1 [1, 3]: 9.46%
ΔFmax [1]: ~10%
Kd [1, 4]: 330 µM
Kd ([1]; single type of binding site): ~300 µM

Molecule: Nc1ncnc2c1ncn2C1OC(COP(=O)(O)OP(=O)(O)NP(=O)(O)O)C(O)C1O (stereo not shown) [AMP-PNP, 5′-adenylylimido-diphosphate]
ΔFmax1 [1, 3]: 10.6%
ΔFmax [1]: ~10%
Kd ([1]; single type of binding site): 210 µM

Molecule: Nc1ncnc2c1ncn2[C@@H]1O[C@H](COP(=O)(O)OP(=O)([O-])OP(=O)([O-])O)[C@@H](O)[C@H]1O.[Na+].[Na+] [ATP, disodium-ATP]
ΔFmax1 [1, 3]: 10.4%
ΔFmax [1]: ~10%
Kd [1, 4]: 280 µM
Kd ([1]; single type of binding site): ~300 µM

Molecule: CCCCCCCCCCCCCCCCCCOP(=O)([O-])OC1CC[N+](C)(C)CC1 [D21266]
ΔFmax1 [1, 3]: 13.0 ± 1.15%
Kd [1, 4]: 20.1 ± 3.4 µM

Molecule: CCCCCCCCCCCCCCCCCCOP(=O)(O)OCC[N+]1(C)CCCCC1 [D-20133]
ΔFmax1 [1, 3]: 12.3 ± 0.89%
Kd [1, 4]: 12.8 ± 2.1 µM

Molecule: CCOc1ccc(-c2nc3ccc(-c4nc5ccc(N6CCN(C)CC6)cc5[nH]4)cc3[nH]2)cc1 [Hoechst 33342]
ΔFmax1 [1, 3]: 57.2 ± 1.97%
Kd [1, 4]: 2.61 ± 0.182 µM

Molecule: O=c1cc(N2CCOCC2)oc2c(-c3ccccc3)cccc12 [LY294002]
Kd [1, 5]: 6.29 ± 0.88 µM
Kd ([1]; Kd2, lower affinity site of biphasic quench curve): 11.5 ± 1.5 µM
ΔFmax2 [1, 6]: 36.2 ± 2.0%
ΔFmax1 [1, 3]: 29.7 ± 1.6%

Kd [1]: 0.081 ± 0.0071 µM
ΔFmax1 [1, 3]: 4.02 ± 0.079%
Molecule: C/C=C/C[C@@H](C)C(=O)[C@H]1C(=O)N[C@@H](C(C)C)C(=O)N(C)CC(=O)N(C)[C@@H](CC(C)C)C(=O)N[C@@H](C(C)C)C(=O)N(C)[C@@H](CC(C)C)C(=O)N[C@@H](C)C(=O)N[C@H](C)C(=O)N(C)[C@@H](CC(C)C)C(=O)N(C)[C@@H](CC(C)C)C(=O)N(C)[C@@H](C(C)C)C(=O)N1C [PSC833]

Molecule: C=CC(N)=O [acrylamide]
decline in catalytic activity (ATP hydrolysis by Pgp) (Pgp ATPase): ~20%

Molecule: COc1cc2c(c(OC)c1OC)-c1ccc(OC)c(=O)cc1[C@@H](NC(C)=O)CC2 [colchicine]
<tav> (amplitude average lifetime) [2]: 2.63 ns
a1 (pre-exponential value) [2]: 0.66
a2 (pre-exponential value) [2]: 0.39
t1 (fluorescence lifetime) [2]: 1.4 ns
t2 (fluorescence lifetime) [2]: 4.7 ns
ΔFmax1 [1, 3]: 102.2 ± 5.7%

Molecule: COc1cccc2c1C(=O)c1c(O)c3c(c(O)c1C2=O)C[C@@](O)(C(C)=O)C[C@@H]3O[C@H]1C[C@H](N)[C@H](O)[C@H](C)O1 [daunorubicin]
<tav> (amplitude average lifetime) [2]: 2.61 ns
a1 (pre-exponential value) [2]: 0.71
a2 (pre-exponential value) [2]: 0.52
t1 (fluorescence lifetime) [2]: 1.3 ns
t2 (fluorescence lifetime) [2]: 4.4 ns
Kd [1]: 2.97 ± 0.38 µM
ΔFmax1 [1]: 22.7 ± 1.3%
ΔFmax2 [1]: 38.2 ± 2.4%
Kd (P-glycoprotein (Pgp)): 10.7 ± 1.7 µM

Molecule: COc1cccc2c1C(=O)c1c(O)c3c(c(O)c1C2=O)C[C@@](O)(C(=O)CO)C[C@@H]3O[C@H]1C[C@H](N)[C@H](O)[C@H](C)O1 [doxorubicin]
Kd [1]: 5.44 ± 0.55 µM
ΔFmax2 [1, 6]: 38.7 ± 3.0%
ΔFmax1 [1, 3]: 19.5 ± 0.90%
Kd (P-glycoprotein (Pgp)): 21.6 ± 3.2 µM

Molecule: CCCCCCCCCCCCCCCCOP(=O)([O-])OCC[N+](C)(C)C [mitelfosine]
ΔFmax1 [1]: 12.0 ± 1.0%
Kd [1, 4]: 20.6 ± 3.3 µM

Molecule: CC(C)CC(=O)N[C@H](C(=O)N[C@H](C(=O)N[C@@H](CC(C)C)[C@@H](O)CC(=O)N[C@@H](C)C(=O)N[C@@H](CC(C)C)[C@@H](O)CC(=O)O)C(C)C)C(C)C [pepstatin A] (Isovaleryl-VV[Sta]A[Sta]-OH)
Kd [1, 5]: 9.53 ± 0.78 µM
ΔFmax1 [1, 3]: 4.46 ± 0.073%

Molecule: C=C[C@H]1C[N@@]2CC[C@H]1C[C@H]2[C@H](O)c1ccnc2ccc(OC)cc12 [quinine]
ΔFmax1 [1]: 33.5 ± 2.2%

Molecule: CC(C)(C)OC(=O)N[C@@H](CC(=O)OCc1ccccc1)C(=O)N[C@@H](CCCCNC(=O)OCc1ccccc1)C(=O)OC(C)(C)C [reversin 201] (Boc-Asp(OBn)-Lys(Cbz)-OtBu; N-terminus and C-terminus assumed)
Kd ([1]; Kd1): 0.23 ± 0.02 µM

Molecule: COC(=O)[C@H](CCCCNC(=O)[C@H](CCC(=O)OCc1ccccc1)NC(=O)OC(C)(C)C)NC(=O)[C@H](CCC(=O)OCc1ccccc1)NC(=O)OC(C)(C)C [reversin 205]
Kd ([1]; Kd1): 0.37 ± 0.037 µM
ΔFmax1 [1, 3]: 5.41 ± 0.13%

Molecule: CCN(CC)c1ccc2c(-c3ccccc3C(=O)O)c3ccc(=[N+](CC)CC)cc-3oc2c1 [rhodamine B]
Kd [1, 4]: 4 ± 0.45 µM
Kd [1, 7]: 33.2 ± 3.1 µM

Molecule: CN1CCN(CCCN2c3ccccc3Sc3ccc(C(F)(F)F)cc32)CC1 [trifluoperazine]
<tav> (amplitude average lifetime) [2]: 2.15 ns
a1 (pre-exponential value) [2]: 0.72
a2 (pre-exponential value) [2]: 0.35
t1 (fluorescence lifetime) [2]: 1.1 ns
t2 (fluorescence lifetime) [2]: 4.3 ns
ΔFmax2 [1, 6]: 67.7 ± 4.1%
ΔFmax1 [1, 3]: 18.9 ± 0.87%
Kd (P-glycoprotein (Pgp)): 16.8 ± 1.6 µM

Molecule: CC(C)[C@@H]1NC(=O)[C@H](C)OC(=O)[C@@H](C(C)C)NC(=O)[C@@H](C(C)C)OC(=O)[C@H](C(C)C)NC(=O)[C@H](C)OC(=O)[C@@H](C(C)C)NC(=O)[C@@H](C(C)C)OC(=O)[C@H](C(C)C)NC(=O)[C@H](C)OC(=O)[C@@H](C(C)C)NC(=O)[C@@H](C(C)C)OC1=O [valinomycin]
Kd [1]: 0.72 ± 0.084 µM
ΔFmax1 [1, 3]: 4.14 ± 0.086%

<tav> (amplitude average lifetime) [2]: 2.17 ns
a1 (pre-exponential value) [2]: 1.07
a2 (pre-exponential value) [2]: 0.51
t1 (fluorescence lifetime) [2]: 1.1 ns
t2 (fluorescence lifetime) [2]: 4.4 ns
Kd [1]: 0.5 ± 0.08 µM
ΔFmax1 [1, 3]: 17.5 ± 0.82%
Molecule: CC[C@]1(O)C[C@@H]2CN(CCc3c([nH]c4ccccc34)[C@@](C(=O)OC)(c3cc4c(cc3OC)N(C)[C@H]3[C@@](O)(C(=O)OC)[C@H](OC(C)=O)[C@]5(CC)C=CCN6CC[C@]43[C@@H]65)C2)C1 [vinblastine]

Molecule: TNP-ATP
<tav> (amplitude average lifetime) [2]: 2.14 ns
a1 (pre-exponential value) [2]: 0.69
a2 (pre-exponential value) [2]: 0.42
t1 (fluorescence lifetime) [2]: 1.0 ns
t2 (fluorescence lifetime) [2]: 4.0 ns
ΔFmax1 [1, 3]: 79.6%
ΔFmax [1]: ~80%
Kd ([1]; nucleotide alone, absence of drug): 51 µM
Kd [1, 4]: 50.6 µM
Kd ([1]; titration following daunorubicin binding): 65 µM
Kd ([1]; titration following saturation with vinblastine): 64 µM

Molecule: rhodamine 123
<tav> (amplitude average lifetime) [2]: 2.73 ns
a1 (pre-exponential value) [2]: 0.65
a2 (pre-exponential value) [2]: 0.43
t1 (fluorescence lifetime) [2]: 1.5 ns
t2 (fluorescence lifetime) [2]: 4.6 ns
Kd [1]: 6.81 ± 0.71 µM
ΔFmax2 [1, 6]: 107.2 ± 1.8%
ΔFmax1 [1, 3]: 47.5 ± 2.5%
ΔFmax [1]: ~100%
Kd [1, 7]: 29.8 ± 1 µM

Molecule: tetramethylrosamine
<tav> (amplitude average lifetime) [2]: 3.9 ns
a1 (pre-exponential value) [2]: 2.43
a2 (pre-exponential value) [2]: 1.1
t1 (fluorescence lifetime) [2]: 0.55 ns
ΔFmax1 [1]: 21.0 ± 3.3%
ΔFmax2 [1]: 32.8 ± 0.88%
